Test: Monkey oral pharmacokinetic (PK) study
Type: in vivo, Cynomolgus monkeys (Macaca fascicularis)
Settings: for plasma concentration-time profile: PO, over about 24 hours after oral dosing, FIGS. 8A-8E; for AUC0-24 h (Arbitrary units) / Cmax (Arbitrary unit): oral
Experimental: Appropriate volumes of vehicles (e.g., 2% Tween 80 (v:v) and 0.5% MC (w:v) in saline or 0.5% MC (w:v) in water were then added into the mortar containing the ground compounds, and the mixture was then grinded with a pestle until a homogeneous paste was formed. Additional appropriate volumes of vehicles were added into the mortar containing each compound, and the mixture was grinded further with the pestle until a homogeneous suspension was obtained.
The suspension was then transferred into a glass bottle. The mortar and the pestle were rinsed with the vehicle until no compound was left in the mortar or on the pestle.
The rest of the vehicle was added to make up the final dosing volume of about 1 mg/mL or 2 mg/mL (i.e., final dosing volume of about 5 mL/kg), and the homogenous suspension was continuously stirred prior to and during the dosing.
Non-nave Cynomolgus male monkeys (n=3/test article; sourced from Hainan Jingang Biotech Co., Ltd., Nayang Xintan, Fucheng Town, Qiongshan District, Haikou City, Hainan Province, China); or non-naïve aged, obese, and diabetic male Macaca fascicularis monkeys (n=3/test article, Source: Kunming Biomed International Colony) were used in pre-clinical in vivo studies. All non-nave Cynomolgus male monkeys were approximately 3 to 5 years old, weighed about 2.5-5 kg, and were within ±20% of the average body weight. All non-nave aged, obese, and diabetic male Macaca fascicularis monkeys were approximately 12 to 20 years old, weighed about >8-12 kg.
All animals were fasted overnight before dosing, and the food were supplied approximately 4 hours post dose (with free access to water all the time).
Animals were restrained at designated time points for blood sampling. Approximately 500 μL of blood samples was taken via cephalic or saphenous vein into EDTA-K2 tubes. Blood samples were put on wet ice before centrifugation.
For oral administration (PO) of either Dose 1 or Dose 2: blood samples were collected at pre-dose, and at 15 min, 30 min, 1 hr, 2 hr, 4 hr, (6 hr for compounds 19 and 28 with cynomolgus monkeys only), 8 hr, 12 hr, and 24 hr post dose (i.e., 9 or 10 total time points for each compound at each dose).
The blood samples were centrifuged at approximately 2,000-4,000 rpm for about 10-15 minutes at 2-8° C., and each resulting plasma portion was then transferred into an individual tube.
LC-MS/MS methods were developed, and bioanalysis for the test articles in monkey plasma was performed according to the developed LC-MS/MS methods.
Undiluted plasma samples: An aliquot of 20-50 μL plasma sample was mixed with 200 μL of ACN or MeOH containing one of the internal standards (IS, e.g., Diclofenac or Terfenadine) The mixture was then vortexed for about 1-5 min, and centrifuged at about 4,000-5,800 rpm for about 10-15 min. An aliquot of 1 μL supernatant was used for LC-MS/MS analysis.
Plasma samples with 10-fold dilution: An aliquot of 2 μL plasma sample was first mixed with 18 μL of blank plasma, then 200 μL of ACN containing 100 ng/mL IS (e.g. Diclofenac) was added to the mixture. The mixture was then vortexed for about 10 min, and was centrifuged at about 5,800 rpm for about 10 min. An aliquot of 1 μL supernatant was used for LC-MS/MS analysis.
MS conditions: Positive ion, ESI, MRM detection with parent and daughter ions, internal standard Diclofenac. • Compound ID: Compounds 19, 28, 29, 225 or 418 (control) HPLC conditions Method 1: • Mobile Phase A: H2O-0.025% FA-1 mM NH4OAC • Mobile Phase B: MeOH-0.025% FA-1 mM NH4OAC
Pharmacokinetics parameters, including area under the curve (AUC0-t), maximum plasma concentration (Cmax), time to reach maximum plasma concentration (Tmax), oral bioavailability (F %), etc., were calculated using Phoenix software (Version 6.4) and non-compartment model.

[1] = Dose 1, non-naive Cynomolgus male monkeys

Structure (SMILES) | plasma concentration-time profile | AUC0-24 h (Arbitrary units) [1] [Arbitrary units] | Cmax (Arbitrary unit) [1] [Arbitrary unit] | AUC0-24 h (Arbitrary units) (Dose 2, monkeys) | Cmax (Arbitrary unit) (Dose 2, monkeys) | drop in plasma concentration (over about 24 hours post oral dosing, Dose 2, FIG. 8F)
N#Cc1ccc(COc2cccc(C3=CCN(Cc4nc5ccc(C(=O)O)cc5n4C[C@@H]4CCO4)CC3)n2)c(F)c1 [Compound 19, (S)-2-((4-(6-(4-cyano-2-fluorobenzyloxy)pyridin-2-yl)-5,6-dihydropyridin-1(2H)-yl)methyl)-1-(oxetan-2-ylmethyl)-1 h-benzo[d]imidazole-6-carboxylic acid] | sustained at a more constant level | 1130 | 125 |  |  | 
N#Cc1ccc(COc2cccc(C3=CCN(Cc4nc5ccc(C(=O)O)nc5n4C[C@@H]4CCO4)CC3)n2)c(F)c1 [Compound 225, (S)-2-((6-((4-cyano-2-fluorobenzyl)oxy)-3′,6′-dihydro-[2,4′-bipyridin]-1′(2′H)-yl)methyl)-3-(oxetan-2-ylmethyl)-3H-imidazo[4,5-b]pyridine-5-carboxylic acid] | sustained at a more constant level |  |  | 1500 | 184 | 
N#Cc1ccc(COc2cccc(C3CCN(Cc4nc5ccc(C(=O)O)cc5n4C[C@@H]4CCO4)CC3)n2)c(F)c1 [Compound 418, reference compound] |  |  |  | 774 | 232 | about 10 fold

Second part, the compound after the results:

plasma concentration-time profile | AUC0-24 h (Arbitrary units) [1] [Arbitrary units] | Cmax (Arbitrary unit) [1] [Arbitrary unit] | AUC0-24 h (Arbitrary units) (Dose 2, monkeys) | Cmax (Arbitrary unit) (Dose 2, monkeys) | drop in plasma concentration (over about 24 hours post oral dosing, Dose 2, FIG. 8F) | Structure (SMILES)
sustained at a more constant level | 24900 | 3910 |  |  |  | O=C(O)c1ccc2nc(CN3CC=C(c4cccc(OCc5ccc(Cl)cc5F)c4)CC3)n(C[C@@H]3CCO3)c2c1 [Compound 28, (S)-2-((4-(3-((4-chloro-2-fluorobenzyl)oxy)phenyl)-3,6-dihydropyridin-1(2H)-yl)methyl)-1-(oxetan-2-ylmethyl)-1 h-benzo[d]imidazole-6-carboxylic acid]
sustained at a more constant level |  |  | 21800 | 3380 |  | O=C(O)c1ccc2nc(CN3CC=C(c4ccc(F)c(OCc5ccc(Cl)cc5F)c4)CC3)n(C[C@@H]3CCO3)c2c1 [Compound 29, (S)-2-((4-(3-((4-chloro-2-fluorobenzyl)oxy)-4-fluorophenyl)-3,6-dihydropyridin-1(2H)-yl)methyl)-1-(oxetan-2-ylmethyl)-1 h-benzo[d]imidazole-6-carboxylic acid]

Reference: patent US12365670B2, “GLP-IR agonists and uses thereof” (QILU REGOR THERAPEUTICS INC., priority 2018, dated 2025)
